The values below come from ChEMBL document CHEMBL1201862, “PubChem BioAssay data set” (2004).

What all share (assay): NCI-60 cell line screen, 48 h
Test [1] relates to HCT-15.
The test system of test [2] is HCC 2998.
In test [3] the test system is COLO 205.
In test [4] the test system is SNB-19.
Test [5] concerns NCI/ADR-RES.
The test system of test [6] is MOLT-4.
Test [7] deals with EKVX.
The subject of test [8] is SF-268.
Test [9] deals with DU-145.
Test [10] has as its system UO-31.
Test [11] deals with U-251.
In test [12] the test system is 786-0.
The subject of test [13] is KM12.
In test [14] the test system is Hs-578T.
Test [15] relates to MDA-MB-435.
Test [16] has as its system CAKI-1.
The subject of test [17] is OVCAR-5.
For test [18], the system named is UACC-62.
The test system of test [19] is CCRF-CEM.
Test [20] concerns MDA-MB-231.

Each structure is given as a SMILES string.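 Where inhibition never reached the appropriate level, the endpoint shown equals the highest concentration tested. Otherwise, values were interpolated linearly from a five-concentration, 48-hour dose response in 96-well plates. At the GI50, growth is halved.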 The source made the active and inactive calls. Cut-off read from the data, not from the text of the source: active = GI50 up to about 1.1 µM and inactive = higher.

Take `O=C1N=C(Nc2ccccc2Cl)N/C1=C\c1ccc(Cl)cc1Cl`: the GI50 is 39.5 µM in test [1]; 53.5 µM (inactive) in test [2]; 47.8 µM (inactive) in test [3]; > 100 µM (inactive) in test [4]; 45.6 µM (inactive) in test [5]; 66.8 µM (inactive) in test [6]. For the same molecule, the GI50 in [7] is > 100 µM (inactive); in test [8] it was > 100 µM (inactive); in test [9] it was 33.3 µM (inactive); in test [10] it was > 100 µM (inactive); in test [11], 33.9 µM (inactive); in [12], 68.2 µM (inactive). Besides, the GI50 in test [13] is 45.6 µM (inactive); in test [14] it was > 100 µM (inactive); in [15], 5.96 µM (inactive); in [16], > 100 µM (inactive); in [17], > 100 µM (inactive); in test [18] it was > 100 µM (inactive). In test [19], the GI50 is 29.5 µM (inactive).

Turning to `Oc1ccc(-c2csc(N/N=C3\NC/C(=C/c4ccc5c(c4)OCO5)S3)n2)cc1O`, the GI50 was 19.1 µM in test [1]; 40.6 µM (inactive) in [2]; 29.1 µM (inactive) in [3]; 14.4 µM (inactive) in test [4]; 42 µM (inactive) in test [5]; 5.45 µM (inactive) in test [6]. For the same molecule, the GI50 was 26.4 µM (inactive) in test [7]; 26.7 µM (inactive) in test [9]; 11.2 µM (inactive) in test [10]; 22.1 µM (inactive) in test [11]; 30.6 µM (inactive) in [12]; 17.3 µM (inactive) in [13]. Besides, the GI50 in test [15] is 3.21 µM (inactive); in test [16], 32.4 µM (inactive); in test [17], 47.2 µM (inactive); in test [20], 55.8 µM (inactive).

Turning to `COC(=O)c1ccccc1/C=C1\Cc2c(C)cc(C)cc2C1=O`, the GI50 was more than 100 µM in test [1]; > 100 µM (inactive) in test [2]; > 100 µM (inactive) in test [4]; > 100 µM (inactive) in test [6]; > 100 µM (inactive) in test [7]; > 100 µM (inactive) in test [8]. Besides, the GI50 in test [10], in test [11], in test [12], in [13], in [14] and in [16] was > 100 µM (inactive) each time. Further, the GI50 in test [18], in [19] and in test [20] was > 100 µM (inactive) throughout.

As to `CN(C)NC1=NS(=O)(=O)c2cc3c(cc2S1)N(N(C)C)C(=O)c1cc2c(cc1N(N(C)C)C3=O)SC(NN(C)C)=NS2(=O)=O`, the GI50 in test [1] is more than 10 µM; in [2], > 10 µM (inactive); in [3], > 10 µM (inactive); in [4], > 10 µM (inactive); in [5] it was > 10 µM (inactive); in test [6], > 10 µM (inactive). Further, the GI50 in test [7], in test [8], in [9], in test [10], in test [11] and in [12] was > 10 µM (inactive) throughout. Besides, the GI50 in [13], in [14], in [16], in test [17] and in test [19] was > 10 µM (inactive) throughout.

In the case of `CCN(CCN(CC)C(=O)NC)C(=O)NC`, the GI50 in test [1] was more than 100 µM; in [2] it was > 100 µM (inactive); in test [3], > 100 µM (inactive); in [4] it was > 100 µM (inactive); in [5], > 100 µM (inactive); in test [6], > 100 µM (inactive). For the same molecule, the GI50 in [7], in test [8], in [9], in [10], in [11] and in [12] was > 100 µM (inactive) throughout. The GI50 in test [14], in test [17], in [18], in test [19] and in [20] was > 100 µM (inactive) throughout.
